Laboratory results as given in patent US20100093760A1, “METHODS FOR IDENTIFYING COMPOUNDS THAT MODULATE CELL SIGNALING AND METHODS EMPLOYING SUCH COMPOUNDS” (The General Hospital Corporation, priority 2006, published 2010).
“Also recorded” adds a separate entry of the source.

Legend:
[1] = test system: zebrafish embryos; format: in vivo
Description: According to one example of the whole animal-based screening methods of the invention, 1-2 hour old zebrafish embryos are arrayed in the wells of 96-well plates, three embryos per well. A chemical library, which is comprised of tens of thousands of diverse small molecules, is then pin-transferred into the wells at a final concentration of ˜2 to 10 uM. Embryos are observed over the course of next 24-48 hours and scored under a dissecting microscope for phenotype consistent with loss of BMP signaling (dorsalized embryos, FIG. 1) or with the loss of nodal signaling (cyclopia, FIG. 2).
Small molecule screening in zebrafish was performed as previously described (Peterson et al., Nat. Biotechnol. 22:595-599, 2004) with several modifications. Pairs of wild-type zebrafish were mated, and newly-fertilized eggs were arrayed in triplicate in 96-well plates containing E3 buffer. At 4 hours post fertilization (hpf), compounds were added to wells at 5-10 μM. Embryos were incubated at 28.5° C., and gross morphology of embryos was examined at 12, 24, and 48 hpf for dorsalization or ventralization of embryonic axis, as previously described (Mullins et al., Development 123:81-93, 1996). In total, 7,570 compounds were screened, including synthetic screening compounds (Chembridge Corporation, 5,580 small molecules) and known bioactive compounds (Microsource Discovery Systems, 1,840 small molecules and Sigma-Aldrich, 150 small molecules). For follow up studies, Compound C/Dorsomorphin and Ara-A (adenine 9-β-D-arabinofurano-side) were purchased from Sigma (St. Louis, Mo.), and C75 was purchased from EMD Biosciences (San Diego, Calif.).

[2] = molecular target: T1, caALK4 (Homo sapiens, UniProt P36896, T206D); assay: Constitutively-active ALK4 PAI-1 promoter reporter (CAGA-Luc); format: cell-based; details: PASMCs, up to 20 μM
T1 construct: expressed in transfected cells; host or cells: murine PASMCs, transient transfection
T1 sequence (P36896 24-505 T206D): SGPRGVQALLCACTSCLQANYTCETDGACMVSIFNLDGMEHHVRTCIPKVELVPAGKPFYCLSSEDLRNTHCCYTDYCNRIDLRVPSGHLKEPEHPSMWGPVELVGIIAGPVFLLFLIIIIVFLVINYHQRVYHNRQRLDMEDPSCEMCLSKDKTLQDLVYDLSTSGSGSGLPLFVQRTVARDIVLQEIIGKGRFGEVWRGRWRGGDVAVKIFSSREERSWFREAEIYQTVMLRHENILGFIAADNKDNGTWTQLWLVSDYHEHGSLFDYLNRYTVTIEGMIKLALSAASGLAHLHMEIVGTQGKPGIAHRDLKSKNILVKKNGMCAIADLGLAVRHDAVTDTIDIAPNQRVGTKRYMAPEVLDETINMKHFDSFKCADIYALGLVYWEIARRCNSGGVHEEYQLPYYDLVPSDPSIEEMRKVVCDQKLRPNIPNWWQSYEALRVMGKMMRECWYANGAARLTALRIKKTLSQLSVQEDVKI
Description: Murine PASMCs grown to 50% confluence in 6-well plates were transiently transfected with 0.3 μg Id1 promoter luciferase reporter construct (BRE-Luc, Dr. Peter ten Dijke, Leiden University Medical Center, Netherlands (Korchynskyi et al., J. Biol. Chem. 277:4883-4891, 2002)) in combination with 0.6 μg plasmids expressing constitutively-active forms of BMP type I receptors (caALK2, caALK3, or caALK6, kindly provided by Dr. Kohei Miyazono, University of Tokyo, Japan (Fujii et al., Mol. Biol. Cell 10:3801-3813, 1999)), using Fugene6 (Roche). To assess Activin and […] type I receptor function, PASMCs were transiently transfected with 0.3 μg PAI-1 promoter luciferase reporter construct (CAGA-Luc, Dr. Peter ten Dijke (Dennler et al., Embo J. 17:3091-3100, 1998)) in combination with 0.6 μg plasmids expressing constitutively active forms of type I receptors (caALK4, caALK5, and caALK7, also provided by Dr. Kohei Miyazono (Okadome et al., J. Biol. Chem. 271:21687-21690, 1996; Shimizu et al., Genes Cells 3:125-134, 1998)). For both reporters, 0.2 μg pRL-TK Renilla luciferase (Promega) was used to control for transfection efficiency. […] Cell extracts were harvested, and relative promoter activity quantitated by the ratio of firefly to Renilla luciferase activity using the dual luciferase assay kit (Promega). […] Hepcidin promoter activity was measured by luciferase assay as above.

[3] = test system: murine hepcidin (HAMP1) mRNA; assay: Basal hepatic hepcidin mRNA in mice; format: in vivo; details: C57BL/6 mice, single tail vein injection 10 mg/kg, 6 hours
[4] = test system: zebrafish embryos (eve1, pax2.1, krox20, MyoD); assay: Wholemount zebrafish in situ hybridization of dorsal and ventral markers; format: in vivo
Description: In situ hybridization was performed as previously described (Westerfield, The Zebrafish Book, (University of Oregon Press, Eugene, Oreg., 1993)). Zebrafish krox20, pax2.1, and MyoD probes were produced as previously described (Weinberg et al., Development 122:271-280, 1996).

[5] = test system: chordin morphant embryos; assay: Rescue of ventralization in chordin morphant zebrafish embryos; format: in vivo; details: 20 μM at 2 hpf, 36 hpf
Source text: Since treatment with Compound C/Dorsomorphin mimics BMP antagonism in zebrafish, it was postulated that Compound C/Dorsomorphin might rescue ventralization caused by loss of the endogenous BMP antagonist chordin ([…] et al., Development 123:143-151, 1996; Nasevicius et al., Nat. Genet. 26:216-220, 2000). […] Genet. 26:216-220, 2000; Leung et al., Dev. Biol. 277:235-254, 2005). […] Therefore, Compound C/Dorsomorphin treatment compensates for the loss of an endogenous BMP antagonist in zebrafish embryos, confirming its function as a BMP antagonist.

[6] = 10 μM, continuous exposure from 8 hpf, scored at 48 hpf
[7] = 6-somite stage, treatment at 1 hpf

`c1cc(-c2cnn3cc(-c4ccc(OCCN5CCCCC5)cc4)cnc23)ccn1` [Compound C/Dorsomorphin] showed a Moderate % [1, 6] of 0%, a Normal % [1, 6] of 15% and a Severe % ([1]; 10 μM, interval exposure 2-4 hpf, scored at 48 hpf) of 0%. For the same compound, the “Moderate dorsalization, number of embryos” value ([1]; 10 μM, interval exposure 4-8 hpf, scored at 48 hpf) was 8, the “Moderate-Severe, number of embryos” value ([1]; DM 2 μM from 3 hpf, scored at 48 hpf) was 0 and the dorsalization phenotype ([1]; ≧5 μM at ≦8 hpf) was “phenocopied with high penetrance the spectrum of dorsalization defects”. The “effect on caALK4-mediated PAI-1 promoter activity (CAGA-Luc)” value [2] was “did not inhibit; also recorded: not decreased”, the “liver hepcidin mRNA relative to controls” value [3] was “one-third” and the “expression of Krox20 (rhombomeres 3 and 5) and MyoD” value [4, 7] was “induced lateral expansion; also recorded: expand laterally”. For the same compound, the “expression of dorsal marker pax2.1” value [4, 7] was “induced expansion; also recorded: expands laterally”, the “expression of ventral marker eve1” value ([4]; 18-somite stage, 10 μM at 1 hpf) was “reduced; also recorded: do not exhibit eve1 expression in the distal tail” and the “ventralization of chordin morphant embryos” value [5] was “prevented ventralization and ICM expansion; also recorded: little or no ventralization”.
